Experimental data reported in ChEMBL document CHEMBL1137519, “Elucidation of the RNA target of linezolid by using a linezolid-neomycin B heteroconjugate and genomic SELEX” (Bioorg Med Chem, 2007).

Experiments:
[1] = Binding affinity to Escherichia coli K12 stem-loop region L2-11 RNA aptamers using luminescence spectrometer by anisotropy technique
[2] = Binding affinity to Escherichia coli K12 stem-loop region L2-12 RNA aptamers using BIAcore 3000 instrument
[3] = Binding affinity to Escherichia coli K12 stem-loop region L2-11 RNA aptamers using BIAcore 3000 instrument
[4] = Binding affinity to Escherichia coli K12 stem-loop region L2-12 RNA aptamers using luminescence spectrometer by anisotropy technique
[5] = Binding affinity to Escherichia coli K12 stem-loop region L2-10 RNA aptamers using luminescence spectrometer by anisotropy technique

## CC(=O)NC[C@@H]1CN(c2ccc(N3CCN(C(=O)CSCCCCCCSC[C@@H]4O[C@H](O[C@@H]5[C@@H](O)[C@H](N)C[C@H](N)[C@H]5O[C@H]5O[C@H](CN)[C@@H](O)[C@H](O)[C@H]5N)[C@@H](O)[C@H]4O[C@@H]4O[C@H](CN)[C@H](O)[C@@H](O)[C@@H]4N)CC3)c(F)c2)C(=O)O1
[1]
  Kd: 260 nM
[2]
  Kd: 0.67 µM
[3]
  Kd: 0.96 µM
[4]
  Kd: 66 nM
[5]
  Kd: 90 nM

## NC[C@@H]1O[C@H](O[C@H]2[C@@H](O)[C@H](O[C@@H]3[C@@H](O)[C@H](N)C[C@H](N)[C@H]3O[C@H]3O[C@H](CN)[C@@H](O)[C@H](O)[C@H]3N)O[C@@H]2CO)[C@H](N)[C@@H](O)[C@@H]1O (stereo in doubt) [FRAMYCETIN]
[1]
  Kd: 313 nM
[2]
  Kd: 2.3 µM
[3]
  Kd: 6.3 µM
[4]
  Kd: 320 nM
[5]
  Kd: 308 nM
